Measured values: patent US6479531B1, “Gastrin and cholecystokinin receptor ligands” (James Black Foundation Limited, priority 1998, dated 2002)
Where a name gives a salt, the structure may show the parent alone.

How the values were obtained:
[1] = target: T1, gastrin receptor (Rattus norvegicus, UniProt P30553); experiment: gastrin antagonist activity in immature rat stomach assay (pentagastrin dose-response, acid secretion); settings: isolated immature rat stomach, cumulative pentagastrin dose-response curves, read-out: Gastrin pKb (converted)
T1 construct: The stomach was excised and flushed with ca. 1 ml of unbuffered physiological saline solution; from tissue; host or cells: isolated whole stomach of immature rats (ca. 21 days old)
T1 sequence (P30553 1-452): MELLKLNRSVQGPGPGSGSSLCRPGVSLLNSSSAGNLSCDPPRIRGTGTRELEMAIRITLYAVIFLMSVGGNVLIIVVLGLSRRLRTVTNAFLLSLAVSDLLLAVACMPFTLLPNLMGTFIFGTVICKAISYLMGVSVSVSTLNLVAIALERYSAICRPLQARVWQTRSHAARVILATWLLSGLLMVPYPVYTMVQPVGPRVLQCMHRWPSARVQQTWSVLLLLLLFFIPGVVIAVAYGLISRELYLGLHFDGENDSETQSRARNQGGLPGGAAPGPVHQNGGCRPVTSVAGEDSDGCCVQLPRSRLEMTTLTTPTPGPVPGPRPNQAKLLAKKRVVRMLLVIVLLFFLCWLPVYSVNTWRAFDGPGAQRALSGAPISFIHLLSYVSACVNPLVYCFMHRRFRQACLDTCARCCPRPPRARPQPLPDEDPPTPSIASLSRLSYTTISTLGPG
In short: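 Gastrin antagonism was measured as the effect on cumulative pentagastrin dose-response curves of acid output, recorded by pH electrode in the perfusate of an excised immature rat stomach (ca. 21 days old). Test compound was placed in the serosal bath (37°, 3×10^−8 M 5-methylfurmethide) 60 min before pentagastrin.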

[2] = target: T2, CCKB receptor (Mus musculus, UniProt P56481); experiment: CCKB receptor radioligand binding assay in mouse cortical membranes; settings: [125I]-CCK8(S) 200 pM, 150 min at 21±3°, read-out: CCKB pKi (converted)
T2 construct: The whole brains from male mice (CD1 22-25 g; Charles River) were removed; from tissue; host or cells: cerebral cortex membranes of male CD1 mice
T2 sequence (P56481 1-453): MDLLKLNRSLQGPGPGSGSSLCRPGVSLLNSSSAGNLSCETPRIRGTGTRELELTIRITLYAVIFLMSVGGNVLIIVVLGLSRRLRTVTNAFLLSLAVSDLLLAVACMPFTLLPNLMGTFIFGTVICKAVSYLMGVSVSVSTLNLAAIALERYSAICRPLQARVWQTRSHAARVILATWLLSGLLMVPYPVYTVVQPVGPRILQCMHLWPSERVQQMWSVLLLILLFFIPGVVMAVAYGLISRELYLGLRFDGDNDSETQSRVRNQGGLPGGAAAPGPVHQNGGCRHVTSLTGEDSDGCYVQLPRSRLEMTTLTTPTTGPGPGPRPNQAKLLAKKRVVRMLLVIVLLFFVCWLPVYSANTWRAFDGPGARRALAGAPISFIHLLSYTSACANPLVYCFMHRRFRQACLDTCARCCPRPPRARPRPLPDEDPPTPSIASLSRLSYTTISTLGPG
In short: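 Bound radioactivity was gamma-counted after rapid GF/B filtration and cold 50 mM Tris-HCl (pH 7.4) washes. The tissue was cerebral cortex from male CD1 mice, prepared as twice-centrifuged membranes in pH 7.2 HEPES/NaCl/KCl/MgCl2/EDTA buffer with bacitracin at 20 mg/ml original wet weight.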

SMILES | Kb [1] | Ki [2]
O=C(O)c1cccc(NC(=O)c2cc(-c3ccccc3)[nH]c2CC2CCCCCC2)c1 [Example 12, 3-[(2-Cycloheptylmethyl-5-phenyl-1H-pyrrole-3-carbonyl)-amino]-benzoic Acid] | 1000 nM | 1120 nM
O=C(O)c1cccc(NC(=O)c2nc(C3CCCCC3)[nH]c2CCC2CCCCC2)c1 [Example 168, 3-{[2-Cyclohexyl-5-(2-cyclohexyl-ethyl)-1H-imidazole-4-carbonyl]-amino}-benzoic Acid] | 64.6 nM | 245 nM
O=C(O)c1cccc(NC(=O)c2nc(C3CC=CCC3)[nH]c2CCC23CC4CC(CC(C4)C2)C3)c1 (stereo not shown) [Example 195, 3-{[5-(2-Adamantan-1-yl-ethyl)-2-cyclohex-3-enyl-1H-imidazole-4-carbonyl]-amino}-benzoic Acid] | 6.61 nM | 42.7 nM
Cc1ccc(NC(=O)c2nc(-c3ccccc3C)[nH]c2CCC23CC4CC(CC(C4)C2)C3)cc1C(=O)O [Example 106, 5-{[5-(2-Adamantan-1-yl-ethyl)-2-o-tolyl-1H-imidazole-4-carbonyl]-amino}-2-methyl-benzoic Acid] | 6.31 nM | 5.89 nM
O=C(O)c1cc(NC(=O)c2cc(-c3ccc4ccccc4c3)[nH]c2CC2CCCCCC2)cc(C(=O)O)c1 [Example 11, 5-[(2-Cycloheptylmethyl-5-naphthalene-2-yl-1H-pyrrole-3-carbonyl)-amino]-isophthalic Acid] | 1620 nM | 87.1 nM
CCC(CC)c1nc(C(=O)Nc2cccc(C(=O)O)c2)c(CCC23CC4CC(CC(C4)C2)C3)[nH]1 [Example 112, 3-{[5-(2-Adamantan-1-yl-ethyl)-2-(1-ethyl-propyl)-1H-imidazole-4-carbonyl]-amino}-benzoic Acid] | 9.33 nM | 45.7 nM
CC1(C)C2CC[C@]1(C)C(c1nc(C(=O)Nc3cccc(C(=O)O)c3)c(CCC34CC5CC(CC(C5)C3)C4)[nH]1)C2 (mixture of isomers) [Example 205, 3-{[5-(2-Adamantan-1-yl-ethyl)-2-[(1R,2RS)-1,7,7-trimethyl-bicyclo[2.2.1]hept-2-yl]-1H-imidazole-4-carbonyl]-amino}-benzoic Acid] | 8.32 nM | 47.9 nM
O=C(O)c1cccc(NC(=O)c2nc(C3CC4CCC3C4)[nH]c2CCC23CC4CC(CC(C4)C2)C3)c1 (racemic) [Example 114, (±)-endo-3-{[5-(2-Adamantan-1-yl-ethyl)-2-bicyclo[2.2.1]hept-2-yl-1H-imidazole-4-carbonyl]-amino}-benzoic Acid] | 2.24 nM | 31.6 nM
Cc1ccccc1-c1nc(C(=O)Nc2cccc(CCC(=O)O)c2)c(CCC23CC4CC(CC(C4)C2)C3)[nH]1 [Example 97, 3-(3-{[5-(2-Adamantan-1-yl-ethyl)-2-o-tolyl-1H-imidazole-4-carbonyl]-amino}-phenyl)-propionic Acid Trifluoroacetic Acid Salt] | 501 nM | 6.76 nM
Cc1ccc(NC(=O)c2nc(C3CCCCC3)[nH]c2COC23CC4CC(CC(C4)C2)C3)cc1C(=O)O [Example 217, 5-{[5-(Adamantan-1-yloxymethyl)-2-cyclohexyl-1H-imidazole-4-carbonyl]-amino}-2-methyl-benzoic Acid] | 3.98 nM | 3.98 nM
CCCCC(CC)c1nc(C(=O)Nc2cccc(C(=O)O)c2)c(CCC23CC4CC(CC(C4)C2)C3)[nH]1 (stereo not shown) [Example 124, 3-{[5-(2-Adamantan-1-yl-ethyl)-2-(1-ethyl-pentyl)-1H-imidazole-4-carbonyl]-amino}-benzoic Acid] | 15.5 nM | 63.1 nM
Cc1ccc(NC(=O)c2nc(C(C)(C)C)[nH]c2CCC23CC4CC(CC(C4)C2)C3)cc1C(=O)O [Example 198, 5-{[5-(2-Adamantan-1-yl-ethyl)-2-tert-butyl-1H-imidazole-4-carbonyl]-amino}-2-methyl-benzoic Acid] | 8.13 nM | 8.71 nM
Cc1ccccc1-c1nc(CCC23CC4CC(CC(C4)C2)C3)c(C(=O)Nc2cccc(C(=O)O)c2)n1C [Example 74, 3-{[5-(2-Adamantan-1-yl-ethyl)-3-methyl-2-o-tolyl-3H-imidazole-4-carbonyl]-amino}-benzoic Acid] | 25.7 nM | 324 nM
Cc1ccc(C(=O)O)cc1NC(=O)c1nc(C2CCCCC2)[nH]c1CCC12CC3CC(CC(C3)C1)C2 [Example 252, 3-{[5-(2-Adamantan-1-yl-ethyl)-2-cyclohexyl-1H-imidazole-4-carbonyl]-amino}-4-methylbenzoic Acid] | 263 nM | 170 nM
Cc1ccc(NC(=O)c2nc(-c3ccccc3C)n(C)c2CCC23CC4CC(CC(C4)C2)C3)cc1C(=O)O [Example 161, 5-{[5-(2-Adamantan-1-yl-ethyl)-1-methyl-2-o-tolyl-1H-imidazole-4-carbonyl]-amino}-2-methyl-benzoic Acid] | 81.3 nM | 38.9 nM
O=C(O)c1cccc(NC(=O)c2nc(-c3cccc(F)c3)[nH]c2CCC23CC4CC(CC(C4)C2)C3)c1 [Example 55, 3-{[5-(2-Adamantan-1-yl-ethyl)-2-(3-fluoro-phenyl)-1H-imidazole-4-carbonyl]-amino}-benzoic Acid] | 229 nM | 646 nM
O=C(O)c1cccc(NC(=O)c2nc(-c3ccco3)[nH]c2CCC23CC4CC(CC(C4)C2)C3)c1 [Example 185, 3-{[5-(2-Adamantan-1-yl-ethyl)-2-furan-2-yl-1H-imidazole-4-carbonyl]-amino}benzoic Acid] | 155 nM | 457 nM
O=C(O)c1cccc(NC(=O)c2nc(CC34CC5CC(CC(C5)C3)C4)[nH]c2CCc2ccccc2)c1 [Example 86, 3-[(2-Adamantan-1-ylmethyl-5-phenethyl-1H-imidazole-4-carbonyl)-amino]-benzoic Acid] | 741 nM | 1020 nM
O=C(O)c1cccc(NC(=O)c2nc(C3CC4C=CC3C4)[nH]c2CCC23CC4CC(CC(C4)C2)C3)c1 (racemic) [Example 117, (±)-exo-3-{[5-(2-Adamantan-1-yl-ethyl)-2-bicyclo[2.2.1]hept-5-ene-2-yl-1H-imidazole-4-carbonyl]-amino}-benzoic Acid] | 3.63 nM | 36.3 nM
Cc1ccc(C)c(-c2nc(C(=O)Nc3cccc(C(=O)O)c3)c(CCC34CC5CC(CC(C5)C3)C4)[nH]2)c1 [Example 66, 3-{[5-(2-Adamantan-1-yl-ethyl)-2-(2,5-dimethyl-phenyl)-1H-imidazole-4-carbonyl]-amino}-benzoic Acid] | 55 nM | 200 nM
O=C(O)c1cc(NC(=O)c2cc(-c3ccccc3)[nH]c2CC23CC4CC(CC(C4)C2)C3)cc(C(=O)O)c1 [Example 1, 5-[(2-Adamantan-1-ylmethyl-5-phenyl-1H-pyrrole-3-carbonyl)-amino]-isophthalic Acid] | 468 nM | 191 nM
Cc1ccccc1-c1nc(C(=O)Nc2ccc(F)c(C(=O)O)c2)c(CCC23CC4CC(CC(C4)C2)C3)[nH]1 [Example 105, 5-{[5-(2-Adamantan-1-yl-ethyl)-2-o-tolyl-1H-imidazole-4-carbonyl]-amino}-2-fluoro-benzoic Acid] | 87.1 nM | 46.8 nM
CN(C)c1cccc(-c2nc(C(=O)Nc3cccc(C(=O)O)c3)c(CCC34CC5CC(CC(C5)C3)C4)[nH]2)c1 [Example 71, 3-{[5-(2-Adamantan-1-yl-ethyl)-2-(3-dimethylamino-phenyl)-1H-imidazole-4-carbonyl]-amino}-benzoic Acid] | 794 nM | 186 nM
